This test relates to bleomycin-induced lung fibrosis. Kind of test: Lung hydroxyproline content following bleomycin-induced lung fibrosis (14 days). The settings on record: rats, bleomycin intratracheal day 0; day 1-14: Compound B 30 mg/kg oral three times a day, Triamcinolone 8 mg/kg i.p. every other day; versus bleo+saline; FIG. 8. Type of test: in vivo, rat. How it is done:
Male Sprague-Dawley rats weighing 225 to 250 were purchased from Charles River Laboratories, Inc. Rats were housed in groups of two in the animal facility provided with filtered air and constant temperature and humidity. All animal maintenance was in accordance with Scios' guidelines for animal welfare. The rats were allowed to acclimate to the new environment for one week before all treatment. A 12:12 hour light-dark cycle was maintained, and the animals had free access to ad libitum food and water.
Day 0: To induce pulmonary fibrosis, rats were intubated with 0.5 ml of saline or 0.5 ml of 1.0 unit/ml of bleomycin by intratracheal injection under anesthesia. The anesthetic solution used is a mixture of 0.4 ml of ketamine (100 mg/ml) and 0.25 ml of xylazine (20 mg/ml) at a dose of 1.3 ml/kg.
Group 2 & 3: Rats were weighed and orally dosed with 5 ml/kg of saline three times a day […]
To estimate the total amount of collagen in fibrotic lungs, the hydroxyproline content of the whole lung was measured in each group according to the method described by Woessner Biochim Biophys Acta. […]
Briefly, lungs were harvested and homogenized in 15 ml of 1×PBS with a Polytron homogenizer. […] The hydroxyproline content was the measured using the method of Woessner.
The data were analyzed using a one-way analysis of variance (ANOVA) with a Bonferroni's multiple comparisons post tests. […]

For the compound `C[C@]12C=CC(=O)C=C1CC[C@H]1[C@@H]3C[C@@H](O)[C@](O)(C(=O)CO)[C@@]3(C)C[C@H](O)[C@@]12F` [Triamcinolone], the lung hydroxyproline content entry was “significantly reducing lung hydroxyproline content”.
